Drawing on PubChem BioAssay (NCI), this text covers TGI and GI50 for 15 compounds.

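Results reflect a 48-hour exposure of cells in 96-well plates to compound at five concentrations. GI50 marks 50% less growth. Definition used: TGI = concentration required for complete inhibition of growth.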

What all share (test): NCI tumour cell line growth inhibition, 48 h
Assay [1] concerns MOLT-4 leukemia.
Assay [2] has as its system SK-MEL-5 melanoma.
The test system of assay [3] is MCF7 breast.
Assay [4] has as its system SW-620 colon.
Assay [5] concerns NCI-H23 lung.
Assay [6] deals with 786-0 renal.
Assay [7] relates to OVCAR-8 ovarian.
For assay [8], the system named is HS 578T breast.
Assay [9] deals with EKVX NSCLC.
Assay [10] concerns HCC-2998 colon.

For the compound `CP(=O)(O)C(N)c1ccccc1` (centres undefined), the TGI in [1], in assay [2], in [3], in assay [4], in [5] and in [6] was greater than 100 µM in each case. The TGI in assay [7], in [8] and in assay [9] was greater than 100 µM each time.

`CN(C)C=Nc1c2c(nc3ccccc13)CCCC2`: the TGI in assay [1], in [2], in assay [3], in assay [5], in [6] and in [7] was greater than 100 µM throughout. Further, the TGI in assay [8] and in [9] was greater than 100 µM each time.

As for `COc1cccc2c1C(=O)c1c(O)c3c(c(O)c1C2=O)CC(O)(C(C)=O)CC3O` (centres undefined), the TGI in [1] came to 11.3 µM; in [2], 6.98 µM; in assay [3] it was 16.2 µM; in assay [4], 32.7 µM; in assay [5] it was 16.4 µM; in assay [7] it was 10.6 µM. In addition, the TGI is 11.1 µM in assay [10] and 20.6 µM in assay [9].

`Nc1ccn(CCCC(c2ccccc2)P(=O)(O)O)c(=O)n1` (centres undefined): the TGI in [2], in assay [4], in [5], in assay [6], in assay [7] and in assay [10] was greater than 100 µM each time.

Take `COc1ccc(C=NCCCN=Cc2ccc(OC)cc2O)c(O)c1`: the TGI in assay [1], in [3], in assay [4], in [5], in assay [6] and in [7] was greater than 100 µM in each case. Further, the TGI is 63.7 µM in assay [8] and greater than 100 µM in assay [9].

`Nc1nc(N)c2nc(CNc3ccc(C(=O)NC(CCNC(=O)c4ccccc4C(=O)O)C(=O)O)cc3)cnc2n1` (centres undefined): the GI50 in assay [1] is 0.0453 µM; in [2], 0.0853 µM; in [4], 0.00628 µM; in assay [5], 0.0324 µM; in assay [7], 0.00813 µM; in assay [8] it was 0.49 µM. The GI50 in assay [9] is 0.0214 µM. The TGI in [1], in [2], in assay [3], in assay [4], in [5] and in assay [6] was greater than 100 µM each time. For the same compound, the TGI in [7], in assay [8] and in assay [9] was greater than 100 µM throughout.

Take `O=c1[nH]c(-c2ccc(Cl)cc2)cc2ccsc12`: the TGI in assay [1], in [2], in assay [3], in [4], in assay [5] and in assay [7] was greater than 100 µM in each case. The TGI in assay [10] was 9.61 µM; in assay [9], greater than 100 µM.

Turning to `CCc1n[nH]c(=O)n1N=C(c1ccccc1)c1ccccc1`, the TGI in assay [1], in assay [2], in assay [3], in [4], in [5] and in [6] was greater than 100 µM in each case. Also, the TGI in assay [7] is greater than 100 µM; in assay [8], greater than 100 µM; in assay [9], 93.3 µM.

In the case of `O=C1C(=Cc2ccc([N+](=O)[O-])o2)C(=O)N(CCc2ccccc2)S(=O)(=O)N1CCc1ccccc1`, the TGI in assay [1] worked out at 56.6 µM; in [2], 44.1 µM; in assay [4], 33.9 µM; in assay [5], 31.9 µM; in [6] it was 40.3 µM; in assay [7], 79.2 µM. Further, the TGI in [10] and in [9] was greater than 100 µM in each case.

As for `COc1ccccc1[C@@H]1CCC2CC[C@@H](c3ccccc3OC)[N+]21Cc1ccccc1` (some centres undefined), the TGI in assay [1] was found to be 7.43 µM; in assay [2], 1.64 µM; in assay [3] it was 12.2 µM; in assay [4] it was 22.5 µM; in [5] it was 6.63 µM; in [6], 15.4 µM. The TGI in assay [7] turned out to be 13.8 µM; in assay [8], 35.8 µM; in assay [9], 1.86 µM.

On to `C[C@]12CCC(=O)C=C1CC[C@@H]1C2CC[C@@]2(C)C1CC[C@@H]2OC(=O)C12OC1CCC2=O` (some centres undefined), for which the TGI in assay [1] turned out to be 32.6 µM; in assay [2], 29.7 µM; in assay [4], 32.1 µM; in [5] it was 33.6 µM; in assay [6], 30 µM; in assay [7], 38.6 µM. In addition, the TGI in assay [10] amounted to 59 µM; in assay [9], 31.9 µM.

As for `C=C(C)[C@@H]1CCC2=C(CC[C@]3(C)[C@@H]([C@@H](CCC=C(C)C)C(=O)O)[C@H](O)C[C@@]23C)[C@@]1(C)CCC(=O)O`, the TGI in assay [1], in assay [2], in [4], in [5], in [6] and in [7] was greater than 100 µM throughout. The TGI in [8] and in [9] was greater than 100 µM each time.

Consider `O=C1NC2OC(CO)C(O)C(O)C2O1` (centres undefined), for which the TGI in [1], in assay [2], in assay [4], in assay [5], in assay [6] and in assay [7] was greater than 100 µM in each case. Moreover, the TGI in assay [10] and in assay [9] was greater than 100 µM each time.

In the case of `COc1ccc(OC)c(-c2cc(=O)c3cc4c(cc3[nH]2)OCO4)c1`, the TGI in assay [1] was greater than 84.9 µM; in assay [2] it was 28 µM; in [4], greater than 100 µM; in assay [5], 15.4 µM; in [6], greater than 100 µM; in assay [7], greater than 68.5 µM. Further, the figures for the TGI in assay [10] and in assay [9] were 17.6 µM and greater than 100 µM, respectively.

For the compound `CCOC(=O)C1=C(O)c2ccc(OC)cc2C(=O)C1=O`, the TGI in [1], in assay [2], in [4], in assay [5], in assay [6] and in assay [7] was greater than 100 µM throughout. The TGI in [10] and in [9] was greater than 100 µM throughout.
